Where “and” joins values, the source holds several entries; their conditions need not be identical. Identical values can stand only once. Each block holds one compound with its values, some of them ahead of it.
Tested on: NCI-H929 complex spheroids, viability % test/control
Test: Anticancer human tumor NCI-H929 cell line growth inhibition [RAS];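 also: compound exposure lasted seven days before viability was read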;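 as to viability, T/C: 100% = DMSO vehicle control viability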
Conditions: for viability, T/C: stronger effect = lower value
Outline: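 Tumour cells grown as complex spheroids with HUVEC endothelial cells and mesenchymal stem cells, treated with RAS pathway inhibitor combinations. Each agent spans half-log steps from near clinical Cmax, or 10 microM where Cmax is unknown.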

IC50 (curve of first compound, second compound 0.000949 µM): 789 nM
IC50 (curve of first compound, second compound 0.003 µM): 725 nM
IC50 (curve of first compound, second compound 0.00949 µM): 642 nM
IC50 (curve of first compound, second compound 0.03 µM): 134 nM
IC50 (curve of first compound, second compound 0.0949 µM): < 3.16 nM
IC50 (curve of first compound, second compound 0.3 µM): < 3.16 nM
SMILES: CCN1CCN(Cc2ccc(Nc3ncc(F)c(-c4cc(F)c5nc(C)n(C(C)C)c5c4)n3)nc2)CC1 + CCn1c(-c2cc(N3CCN(C)CC3)cnc2C(C)OC)c2c3cc(ccc31)-c1csc(n1)CC(NC(=O)C1CC1C)C(=O)N1CCCC(N1)C(=O)OCC(C)(C)C2
viability, T/C (second compound 0.000949 µM, first compound 0.00316 µM): 104%
viability, T/C (second compound 0.000949 µM, first compound 0.01 µM): 98.4%
viability, T/C (second compound 0.000949 µM, first compound 0.0316 µM): 110%
viability, T/C (second compound 0.000949 µM, first compound 0.1 µM): 107%
viability, T/C (second compound 0.000949 µM, first compound 0.316 µM): 114%
viability, T/C (second compound 0.000949 µM, first compound 1 µM): 35.1%
viability, T/C (second compound 0.003 µM, first compound 0.00316 µM): 98.3%
viability, T/C (second compound 0.003 µM, first compound 0.01 µM): 105%
viability, T/C (second compound 0.003 µM, first compound 0.0316 µM): 108%
viability, T/C (second compound 0.003 µM, first compound 0.1 µM): 113%
viability, T/C (second compound 0.003 µM, first compound 0.316 µM): 114%
viability, T/C (second compound 0.003 µM, first compound 1 µM): 27.8%
viability, T/C (second compound 0.00949 µM, first compound 0.00316 µM): 109%
viability, T/C (second compound 0.00949 µM, first compound 0.01 µM): 116%
viability, T/C (second compound 0.00949 µM, first compound 0.0316 µM): 120%
viability, T/C (second compound 0.00949 µM, first compound 0.1 µM): 125%
viability, T/C (second compound 0.00949 µM, first compound 0.316 µM): 122%
viability, T/C (second compound 0.00949 µM, first compound 1 µM): 7.19%
viability, T/C (second compound 0.03 µM, first compound 0.00316 µM): 81.7%
viability, T/C (second compound 0.03 µM, first compound 0.01 µM): 80.5%
viability, T/C (second compound 0.03 µM, first compound 0.0316 µM): 76.6%
viability, T/C (second compound 0.03 µM, first compound 0.1 µM): 55.4%
viability, T/C (second compound 0.03 µM, first compound 0.316 µM): 29.2%
viability, T/C (second compound 0.03 µM, first compound 1 µM): 1.2%
viability, T/C (second compound 0.0949 µM, first compound 0.00316 µM): 9.23%
viability, T/C (second compound 0.0949 µM, first compound 0.01 µM): 8.26%
viability, T/C (second compound 0.0949 µM, first compound 0.0316 µM): 6.56%
viability, T/C (second compound 0.0949 µM, first compound 0.1 µM): 4.66%
viability, T/C (second compound 0.0949 µM, first compound 0.316 µM): 2.4%
viability, T/C (second compound 0.0949 µM, first compound 1 µM): 0.89%
viability, T/C (second compound 0.3 µM, first compound 0.00316 µM): 4.35%
viability, T/C (second compound 0.3 µM, first compound 0.01 µM): 4.24%
viability, T/C (second compound 0.3 µM, first compound 0.0316 µM): 2.73%
viability, T/C (second compound 0.3 µM, first compound 0.1 µM): 2.03%
viability, T/C (second compound 0.3 µM, first compound 0.316 µM): 1.42%
viability, T/C (second compound 0.3 µM, first compound 1 µM): 0.89%

IC50 (curve of compound): 189 nM [middle of 4 runs]
SMILES: CC1(O)CCCC1n1c(=O)c(C(F)F)cc2cnc(NC3CCN(S(C)(=O)=O)CC3)nc21 (centres undefined)
viability, T/C (compound 0.0316 µM): 116% and 105% and 113% (2×)
viability, T/C (compound 0.316 µM): 4.47% [middle of 4 runs]
viability, T/C (compound 1 µM): 9.4% [middle of 4 runs]
viability, T/C (compound 3.16 µM): 2.17% [middle of 4 runs]
viability, T/C (compound 10 µM): 0.2% and 0.16% and 0.08%

IC50 (curve of compound): < 31.6 nM
SMILES: CC(=O)OC12COC1CC(O)C1(C)C(=O)C(O)C3=C(C)C(OC(=O)C(O)C(NC(=O)OC(C)(C)C)c4ccccc4)CC(O)(C(OC(=O)c4ccccc4)C21)C3(C)C (centres undefined)
viability, T/C (compound 0.0316 µM): 1.05% [middle of 4 runs]
viability, T/C (compound 0.1 µM): 1.29% [middle of 4 runs]
viability, T/C (compound 0.316 µM): 1.47% [middle of 4 runs]
viability, T/C (compound 1 µM): 1.41% [middle of 4 runs]
viability, T/C (compound 3.16 µM): 1.6% [middle of 4 runs]
viability, T/C (compound 10 µM): 0.8% [middle of 4 runs]

IC50 (curve of compound): 1.97 nM [middle of 4 runs]
SMILES: CCc1c2c(nc3ccc(O)cc13)-c1cc3c(c(=O)n1C2)COC(=O)[C@]3(O)CC
viability, T/C (compound 0.000949 µM): 110% and 80.3% and 104% (2×)
viability, T/C (compound 0.003 µM): 15.8% [middle of 4 runs]
viability, T/C (compound 0.00949 µM): 1.38% [middle of 4 runs]
viability, T/C (compound 0.03 µM): 1.43% [middle of 4 runs]
viability, T/C (compound 0.0949 µM): 1.87% [middle of 4 runs]
viability, T/C (compound 0.3 µM): 1.15% [middle of 4 runs]

IC50 (curve of first compound, second compound 0.0316 µM): 4580 nM
IC50 (curve of first compound, second compound 0.1 µM): 3050 nM
IC50 (curve of first compound, second compound 0.316 µM): 3320 nM
IC50 (curve of first compound, second compound 1 µM): 3810 nM
IC50 (curve of first compound, second compound 3.16 µM): 2830 nM
IC50 (curve of first compound, second compound 10 µM): 1590 nM
SMILES: CC(C)NCC(C(=O)N1CCN(c2ncnc3c2C(C)CC3O)CC1)c1ccc(Cl)cc1 (centres undefined) + C#Cc1c(F)ccc2cc(O)cc(-c3ncc4c(N5CC6CCC(C5)N6)nc(OCC56CCCN5CC(F)C6)nc4c3F)c12
viability, T/C (second compound 0.0316 µM, first compound 0.0316 µM): 105%
viability, T/C (second compound 0.0316 µM, first compound 0.1 µM): 105%
viability, T/C (second compound 0.0316 µM, first compound 0.316 µM): 111%
viability, T/C (second compound 0.0316 µM, first compound 1 µM): 102%
viability, T/C (second compound 0.0316 µM, first compound 3.16 µM): 66%
viability, T/C (second compound 0.0316 µM, first compound 10 µM): 16.3%
viability, T/C (second compound 0.1 µM, first compound 0.0316 µM): 96.9%
viability, T/C (second compound 0.1 µM, first compound 0.1 µM): 105%
viability, T/C (second compound 0.1 µM, first compound 0.316 µM): 109%
viability, T/C (second compound 0.1 µM, first compound 1 µM): 104%
viability, T/C (second compound 0.1 µM, first compound 3.16 µM): 48.3%
viability, T/C (second compound 0.1 µM, first compound 10 µM): 14.1%
viability, T/C (second compound 0.316 µM, first compound 0.0316 µM): 96.2%
viability, T/C (second compound 0.316 µM, first compound 0.1 µM): 101%
viability, T/C (second compound 0.316 µM, first compound 0.316 µM): 108%
viability, T/C (second compound 0.316 µM, first compound 1 µM): 106%
viability, T/C (second compound 0.316 µM, first compound 3.16 µM): 51.6%
viability, T/C (second compound 0.316 µM, first compound 10 µM): 13.6%
viability, T/C (second compound 1 µM, first compound 0.0316 µM): 98.4%
viability, T/C (second compound 1 µM, first compound 0.1 µM): 101%
viability, T/C (second compound 1 µM, first compound 0.316 µM): 108%
viability, T/C (second compound 1 µM, first compound 1 µM): 108%
viability, T/C (second compound 1 µM, first compound 3.16 µM): 58%
viability, T/C (second compound 1 µM, first compound 10 µM): 7.88%
viability, T/C (second compound 3.16 µM, first compound 0.0316 µM): 97.7%
viability, T/C (second compound 3.16 µM, first compound 0.1 µM): 103%
viability, T/C (second compound 3.16 µM, first compound 0.316 µM): 107%
viability, T/C (second compound 3.16 µM, first compound 1 µM): 106%
viability, T/C (second compound 3.16 µM, first compound 3.16 µM): 44.2%
viability, T/C (second compound 3.16 µM, first compound 10 µM): 9.12%
viability, T/C (second compound 10 µM, first compound 0.0316 µM): 94.2%
viability, T/C (second compound 10 µM, first compound 0.1 µM): 92.1%
viability, T/C (second compound 10 µM, first compound 0.316 µM): 101%
viability, T/C (second compound 10 µM, first compound 1 µM): 67.5%
viability, T/C (second compound 10 µM, first compound 3.16 µM): 21.9%
viability, T/C (second compound 10 µM, first compound 10 µM): 2.52%

— PubChem BioAssay AID2060884 (Molecular Pharmacology Branch, DTP, NCI, 2025)
